Source: paper PMC9501810, “Bitter Peptides YFYPEL, [sequence], and [sequence], Released during Gastric Digestion of Casein, Stimulate Mechanisms of Gastric Acid Secretion via Bitter Taste Receptors TAS2R16 and TAS2R38” (Journal of Agricultural and Food Chemistry, 2022)
Several values for one entry are separate records, joined by “and”; a condition that tells them apart may be missing. Identical values can stand only once.

Experiments:
Assay type in all cases: cell-based, human
[1] = tested on: TAS2R38; experiment: Proton secretion assay in TAS2R38 knock-down vs mock-transfected HGT-1 cells; conditions: TAS2R38kd vs mock-transfected HGT-1 cells, VAPFPEVF 17.5 µM, YFYPEL 0.03 µM, YQEPVLGPVRGPFPIIV 0.4 µM, 10 min, mean ± SEM; for reduction of the peptide-induced stimulation of proton secretion in TAS2R38kd cells: 72 h after 1 nM siRNA; for change of peptide-induced proton secretion, TAS2R38kd (in Figure 5E–G): negative = reduction
Description: The measurement of proton secretion from HGT-1 cells represents a well-established model for the identification of bitter compounds. By affecting extraoral bitter taste receptors with bitter compounds, a modulatory effect on proton secretion can be measured. For this purpose, cells were washed with KRHB and incubated with 3 μM of the intracellular pH indicator 1,5 carboxy-seminaphto-rhodafluor acetoxymethyl ester (SNARF-1-AM) under standard conditions. After 30 min, the cells were washed again with KRHB and then incubated with casein (0.01–10 μM equimolar related to the relevant forms αS1- and β-casein), hydrolysate (0.01–10 μM), or the peptides (0.01–200 μM). […] All substances were dissolved and diluted in KRHB. 1 mM histamine was used as a positive control. Measurements were performed using FlexStation 3 (Molecular Devices, USA). The excitation wavelength was 488 nm, and the emission wavelengths were 580 and 640 nm. For calibration (pH range 7.0–8.0), the intracellular and extracellular pH was adjusted with 2 μM nigericin in potassium buffer (20 mM NaCl, 110 mM KCl, 1 mM CaCl2, 1 mM MgSO4, 18 mM D-glucose, and 20 mM HEPES). The intracellular proton index (IPX) was calculated as the log2 value of the 580/640 ratio and compared with cells without treatment. Negative values represent increased secretion of protons and therefore stimulation of mechanisms regulating gastric acid secretion in HGT-1 cells. In contrast, positive values represent an inhibition of secretion compared to the untreated control.
Expression of TAS2R16 and TAS2R38 was reduced by treatment of HGT-1 cells with siRNA. 100,000 cells per well were seeded 1 day before the experiment into a 24-well plate. All reagents and siRNA were purchased from Thermo Fisher Scientific, USA (cytotoxicity was excluded by MTT). Transfection was performed with Lipofectamine RNAiMAX in Opti-Medium according to the manufacturer’s protocol. 1–50 nM of different siRNA sequences (HSS121396 and HSS181763 for TAS2R16 and HSS108754 and HSS108756 for TAS2R38) and three different incubation times (24, 48, and 72 h) were tested. Mock control experiments were performed analogously with 1 or 10 nM Stealth RNAi siRNA negative control. To verify the functionality of the transfection process, verified 10 nM siRNA targeting MAPK1 (VHS40312) was used (positive control). The transfection rate was checked by qPCR as described in section 2.11. For the proton secretion assays, 20,000 cells per well were seeded 1 day before transfection into a black 96-well plate. After 72 h of transfection, proton secretion activities of TAS2R16 knock-down or TAS2R38 knock-down HGT-1 were compared with the mock transfected cells by means of ΔIPX.

[2] = tested on: TAS2R16; experiment: RT-qPCR gene expression of TAS2R16 in HGT-1 cells; conditions: VAPFPEVF 17.5 µM, YFYPEL 0.03 µM, YQEPVLGPVRGPFPIIV 0.4 µM, normalized to PPIA and GAPDH and untreated cells, mean, n = 3–5
Description: For mRNA expression analysis, 800,000 cells were seeded in a T25 cell culture flask (25 cm^2) 1 day before the experiment. After incubation with 17.5 μM […], 0.03 μM YFYPEL, or 0.4 μM […] for 15, 30, 60, and 120 min, RNA was isolated using the peqGOLD RNA Kit (VWR Peqlab, USA) following the manufacturer’s protocol. Determination of RNA concentration (A260/A280 between 2.03 and 2.09) was performed on a NanoDrop One^c (Thermo Fisher Scientific Inc., USA). RNA integrity number (RIN 9.9–10.0, version 2.6, assay class Eukaryote Total RNA Nano) was analyzed using a 2100 Bioanalyzer (Agilent Technologies, USA). Removal of gDNA and synthesis of cDNA were performed using the iScript gDNA Clear cDNA Synthesis Kit (BioRad, Feldkirchen, Germany) following the manufacturer’s protocol. Real-time-qPCR (RT-qPCR) was performed with 50 ng cDNA amplified with SsoAdvanced Universal SYBR Green Supermix (Bio-Rad Laboratories, Inc., USA). The sequences of the forward and reverse primers of the 25 TAS2Rs were taken from Liszt et al.([13]) (Supporting Information Table-SI 3). Verified primers for the TAS1Rs (TAS1R1: qHsaCID0013443; TAS1R2: qHsaCID0016106; TAS1R3: qHsaCED0002321) and for MAPK1 (qHsaCEP0050000) were obtained from Bio-Rad Laboratories. PPIA[37] and GAPDH[38] were used as reference genes. The effects of the peptides on gene expression were analyzed in comparison to untreated control cells. […]

[3] = tested on: TAS2R40; experiment: RT-qPCR gene expression of TAS2R40 in HGT-1 cells; conditions: VAPFPEVF 17.5 µM, YFYPEL 0.03 µM, YQEPVLGPVRGPFPIIV 0.4 µM, normalized to PPIA and GAPDH and untreated cells, mean, n = 3–5
Description: For mRNA expression analysis, 800,000 cells were seeded in a T25 cell culture flask (25 cm^2) 1 day before the experiment. After incubation with 17.5 μM […], 0.03 μM YFYPEL, or 0.4 μM […] for 15, 30, 60, and 120 min, RNA was isolated using the peqGOLD RNA Kit (VWR Peqlab, USA) following the manufacturer’s protocol. Determination of RNA concentration (A260/A280 between 2.03 and 2.09) was performed on a NanoDrop One^c (Thermo Fisher Scientific Inc., USA). RNA integrity number (RIN 9.9–10.0, version 2.6, assay class Eukaryote Total RNA Nano) was analyzed using a 2100 Bioanalyzer (Agilent Technologies, USA). Removal of gDNA and synthesis of cDNA were performed using the iScript gDNA Clear cDNA Synthesis Kit (BioRad, Feldkirchen, Germany) following the manufacturer’s protocol. Real-time-qPCR (RT-qPCR) was performed with 50 ng cDNA amplified with SsoAdvanced Universal SYBR Green Supermix (Bio-Rad Laboratories, Inc., USA). The sequences of the forward and reverse primers of the 25 TAS2Rs were taken from Liszt et al.([13]) (Supporting Information Table-SI 3). Verified primers for the TAS1Rs (TAS1R1: qHsaCID0013443; TAS1R2: qHsaCID0016106; TAS1R3: qHsaCED0002321) and for MAPK1 (qHsaCEP0050000) were obtained from Bio-Rad Laboratories. PPIA[37] and GAPDH[38] were used as reference genes. The effects of the peptides on gene expression were analyzed in comparison to untreated control cells.

Substance | reduction of the peptide-induced stimulation of proton secretion in TAS2R38kd cells [1] | change of peptide-induced proton secretion, TAS2R38kd (in Figure 5E–G) [1] | change in gene expression of TAS2R16 ([2]; incubation 15 min) | change in gene expression of TAS2R16 ([2]; incubation 30 min) | change in gene expression of TAS2R16 ([2]; incubation 60 min) | change in gene expression of TAS2R16 ([2]; incubation 120 min) | change in gene expression of TAS2R40 ([3]; incubation 15 min) | change in gene expression of TAS2R40 ([3]; incubation 30 min) | change in gene expression of TAS2R40 ([3]; incubation 60 min) | change in gene expression of TAS2R40 ([3]; incubation 120 min)
YFYPEL [bitter casein peptide αS1-CN144–149] | 62.8 ± 7.0% | -62.8 ±7.0% | 2.58 fold change | 3.19 fold change and 3.19 ± 0.50 fold change | 2.44 fold change | 2.51 fold change | 1.90 fold change | 0.82 fold change | 0.59 fold change | 0.75 fold change
VAPFPEVF [bitter casein peptide αS1-CN25–32] | 37.5 ± 9.8% | -37.5 ±9.8% | 1.50 fold change | 3.70 fold change and 3.70 ± 0.97 fold change | 1.65 fold change | 2.88 fold change | 0.81 fold change | 1.54 fold change | 0.88 fold change | 1.42 fold change
YQEPVLGPVRGPFPIIV [bitter casein peptide βA1/A2-CN193–209] | 45.2 ± 6.7% | -45.2 ±6.7% | 2.61 fold change | 3.46 fold change and 3.46 ± 0.58 fold change | 2.50 fold change | 3.00 fold change | 0.92 fold change | 1.78 fold change | 0.96 fold change | 0.86 fold change
